Data reported in PMC3713097 (Chemical research in toxicology, 2013).
Like-named read-outs stand apart in the source and are kept apart here.

Key:
P450 2A6 [1] = biological target: T1, P450 2A6 (Homo sapiens, UniProt P11509); test: Spectral binding titration with purified P450 2A6
T1 sequence (P11509 1-494): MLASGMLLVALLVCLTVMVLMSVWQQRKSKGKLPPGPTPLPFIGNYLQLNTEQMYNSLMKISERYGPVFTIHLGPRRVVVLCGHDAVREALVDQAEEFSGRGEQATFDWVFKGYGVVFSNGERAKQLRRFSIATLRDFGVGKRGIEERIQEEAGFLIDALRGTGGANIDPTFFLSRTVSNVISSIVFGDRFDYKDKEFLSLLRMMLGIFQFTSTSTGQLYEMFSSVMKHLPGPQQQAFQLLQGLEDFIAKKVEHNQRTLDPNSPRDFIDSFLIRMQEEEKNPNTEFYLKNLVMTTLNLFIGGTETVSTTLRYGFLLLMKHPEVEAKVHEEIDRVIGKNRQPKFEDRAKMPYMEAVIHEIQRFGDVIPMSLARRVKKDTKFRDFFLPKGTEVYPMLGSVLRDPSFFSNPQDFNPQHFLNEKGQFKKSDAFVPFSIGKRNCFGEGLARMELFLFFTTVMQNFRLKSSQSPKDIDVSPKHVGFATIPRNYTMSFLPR

P450 1B1 [2] = biological target: T2, P450 1B1 (Homo sapiens, UniProt Q16678, L432V); test: Spectral binding titration with purified P450 1B1
T2 sequence (Q16678 1-543 L432V): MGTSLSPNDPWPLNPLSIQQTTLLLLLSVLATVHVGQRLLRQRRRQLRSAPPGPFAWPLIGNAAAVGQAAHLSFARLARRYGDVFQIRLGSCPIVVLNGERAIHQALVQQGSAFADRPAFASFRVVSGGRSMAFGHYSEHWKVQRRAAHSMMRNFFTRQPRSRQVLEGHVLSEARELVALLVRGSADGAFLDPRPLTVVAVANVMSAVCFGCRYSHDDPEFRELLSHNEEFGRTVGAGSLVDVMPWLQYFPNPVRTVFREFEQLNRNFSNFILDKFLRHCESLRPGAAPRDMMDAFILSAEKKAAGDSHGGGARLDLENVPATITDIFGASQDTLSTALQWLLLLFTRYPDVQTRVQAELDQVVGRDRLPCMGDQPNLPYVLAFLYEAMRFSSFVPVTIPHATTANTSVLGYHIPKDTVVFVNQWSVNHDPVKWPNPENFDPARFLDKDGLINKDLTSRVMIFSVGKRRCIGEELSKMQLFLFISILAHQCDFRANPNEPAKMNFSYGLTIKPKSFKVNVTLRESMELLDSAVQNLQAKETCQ

human P450 2A13 = biological target: T3, human P450 2A13 (Homo sapiens, UniProt Q16696); details: pH 7.4
T3 sequence (Q16696 31-494 limits assumed): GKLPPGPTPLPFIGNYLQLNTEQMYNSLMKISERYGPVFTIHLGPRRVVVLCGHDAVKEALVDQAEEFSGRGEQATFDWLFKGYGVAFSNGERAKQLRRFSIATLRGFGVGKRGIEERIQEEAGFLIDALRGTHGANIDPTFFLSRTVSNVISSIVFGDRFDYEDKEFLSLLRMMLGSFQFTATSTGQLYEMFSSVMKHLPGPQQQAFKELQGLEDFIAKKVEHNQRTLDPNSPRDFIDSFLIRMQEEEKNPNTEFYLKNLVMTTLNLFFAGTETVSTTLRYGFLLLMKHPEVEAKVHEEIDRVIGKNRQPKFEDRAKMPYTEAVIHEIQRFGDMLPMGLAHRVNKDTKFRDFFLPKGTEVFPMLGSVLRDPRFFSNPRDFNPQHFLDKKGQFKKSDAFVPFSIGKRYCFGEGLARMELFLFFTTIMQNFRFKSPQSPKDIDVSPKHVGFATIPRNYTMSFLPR

P450 1B1 [3] = biological target: T2, P450 1B1; details: pH 7.4
P450 2A13 = biological target: T4, P450 2A13 (Homo sapiens, UniProt Q16696); test: Spectral binding titration with purified P450 2A13
T4 sequence (Q16696 with tags, fused parts or gaps limits assumed): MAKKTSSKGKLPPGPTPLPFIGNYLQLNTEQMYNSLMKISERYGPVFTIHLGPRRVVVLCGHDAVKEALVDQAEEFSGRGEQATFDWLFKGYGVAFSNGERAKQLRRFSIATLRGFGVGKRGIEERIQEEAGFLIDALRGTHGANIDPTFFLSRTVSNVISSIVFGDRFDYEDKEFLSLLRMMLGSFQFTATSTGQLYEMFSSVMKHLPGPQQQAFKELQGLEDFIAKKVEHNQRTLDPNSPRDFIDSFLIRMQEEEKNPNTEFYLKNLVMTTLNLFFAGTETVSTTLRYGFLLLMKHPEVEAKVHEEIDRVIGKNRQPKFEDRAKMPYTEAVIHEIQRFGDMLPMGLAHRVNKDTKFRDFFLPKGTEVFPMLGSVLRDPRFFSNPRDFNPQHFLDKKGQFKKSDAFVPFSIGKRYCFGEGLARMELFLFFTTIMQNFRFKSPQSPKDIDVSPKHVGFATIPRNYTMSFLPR

P450 2A6 [4] = biological target: T1, P450 2A6; details: pH 7.4

SMILES | Kd (P450 2A6 [1]) [nM] | Kd (P450 1B1 [2]) [nM] | ΔAmax (P450 1B1 [2]) | ΔAmax/ Ks (P450 1B1 [2]) | activation of procarcinogens umu gene expression (human P450 2A13) [units/min/nmol P450] | activation of procarcinogens umu gene expression (P450 1B1 [3]) [units/min/nmol P450] | Kd (P450 2A13) [nM] | ΔAmax (P450 2A13) | ΔAmax/ Ks (P450 2A13) | activation of procarcinogens umu gene expression (P450 2A6 [4]) [units/min/nmol P450] | spectral interaction with P450 2A6 (Type I binding spectra) (P450 2A6 [1]) | ΔAmax (P450 2A6 [1]) | ΔAmax/ Ks (P450 2A6 [1]) | activation of procarcinogens umu gene expression (human P450 2A13; 2.5 µM) [units/min/nmol P450] | activation of procarcinogens umu gene expression (P450 1B1 [3]; 2.5 µM) [units/min/nmol P450] | activation of procarcinogens umu gene expression (P450 2A6 [4]; 2.5 µM) [units/min/nmol P450]
c1ccc2c(c1)-c1cccc3cccc-2c13 [fluoranthene] | > 20000 | 1600 ± 320 | 0.066 ± 0.003 | 0.042 | <10 | <10 | 2400 ± 1500 | 0.044 ± 0.011 | 0.018 | <10 | – | – | – | – | – | –
C1=Cc2cccc3cccc1c23 [acenaphthylene] | 4400 ± 520 | > 20000 | – | – | – | – | 610 ± 190 | 0.050 ± 0.004 | 0.082 | – | interacted | 0.076 ± 0.52 | 0.017 | <10 | <10 | <10
